The values below come from patent publication US11306092B2, “Amino indole compounds useful as TLR inhibitors” (BRISTOL-MYERS SQUIBB COMPANY, priority 2017, dated 2022).

Some results are limits rather than exact numbers.

What all share (type): cell-based
One experiment deals with T1, human TLR7 (Homo sapiens, UniProt Q9NYK1).
T1 construct: host or cells: HEK-Blue cells
T1 sequence (Q9NYK1 27-1049): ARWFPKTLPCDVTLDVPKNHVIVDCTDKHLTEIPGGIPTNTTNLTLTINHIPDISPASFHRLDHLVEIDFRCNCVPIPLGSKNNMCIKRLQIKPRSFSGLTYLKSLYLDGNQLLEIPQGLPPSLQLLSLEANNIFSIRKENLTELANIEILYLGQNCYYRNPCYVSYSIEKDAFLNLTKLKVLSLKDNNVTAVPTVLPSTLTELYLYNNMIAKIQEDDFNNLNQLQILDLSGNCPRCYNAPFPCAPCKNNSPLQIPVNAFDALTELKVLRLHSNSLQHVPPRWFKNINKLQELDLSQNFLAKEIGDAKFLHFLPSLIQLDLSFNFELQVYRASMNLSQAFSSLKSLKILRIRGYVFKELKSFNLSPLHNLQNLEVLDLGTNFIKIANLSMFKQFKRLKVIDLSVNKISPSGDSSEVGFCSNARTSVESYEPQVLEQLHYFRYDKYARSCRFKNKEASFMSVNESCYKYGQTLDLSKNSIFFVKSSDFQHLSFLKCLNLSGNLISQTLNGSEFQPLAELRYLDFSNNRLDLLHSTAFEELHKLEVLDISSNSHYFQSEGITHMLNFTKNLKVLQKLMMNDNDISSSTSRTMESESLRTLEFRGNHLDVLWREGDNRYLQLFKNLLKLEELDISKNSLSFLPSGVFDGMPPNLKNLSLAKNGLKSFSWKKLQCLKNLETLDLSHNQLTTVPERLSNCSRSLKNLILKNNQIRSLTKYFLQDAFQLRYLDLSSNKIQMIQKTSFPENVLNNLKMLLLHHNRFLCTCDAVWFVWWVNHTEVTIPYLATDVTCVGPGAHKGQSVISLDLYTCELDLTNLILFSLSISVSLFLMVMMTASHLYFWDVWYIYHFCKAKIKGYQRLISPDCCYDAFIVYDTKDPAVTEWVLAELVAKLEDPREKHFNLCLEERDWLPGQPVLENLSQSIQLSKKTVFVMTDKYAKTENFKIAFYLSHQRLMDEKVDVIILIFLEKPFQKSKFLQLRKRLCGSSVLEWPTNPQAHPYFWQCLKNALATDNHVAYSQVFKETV
Put plainly: TLR7 inhibition reporter assay (HEK-Blue SEAP reporter). Conditions: HEK-Blue cells overexpressing human TLR7; gardiquimod 7.5 μM; 22 hour incubation. The method, boiled down:
(§1)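 Dose–response from 0.05 nM to 50 μM was run in HEK-Blue human TLR7, TLR8 and TLR9 reporter cells. After 30 min at room temperature with compound, ligand was added (TLR7 gardiquimod 7.5 μM; TLR8 R848 15.9 μM; TLR9 ODN2006 5 nM) and SEAP measured next day, at 22 h.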
A general note: In a reporter assay the amount or activity of a reporter protein is the signal.

For a further experiment, the target named is T2, human TLR9 (Homo sapiens, UniProt Q9NR96).
T2 construct: host or cells: HEK-Blue cells
T2 sequence (Q9NR96 26-1032): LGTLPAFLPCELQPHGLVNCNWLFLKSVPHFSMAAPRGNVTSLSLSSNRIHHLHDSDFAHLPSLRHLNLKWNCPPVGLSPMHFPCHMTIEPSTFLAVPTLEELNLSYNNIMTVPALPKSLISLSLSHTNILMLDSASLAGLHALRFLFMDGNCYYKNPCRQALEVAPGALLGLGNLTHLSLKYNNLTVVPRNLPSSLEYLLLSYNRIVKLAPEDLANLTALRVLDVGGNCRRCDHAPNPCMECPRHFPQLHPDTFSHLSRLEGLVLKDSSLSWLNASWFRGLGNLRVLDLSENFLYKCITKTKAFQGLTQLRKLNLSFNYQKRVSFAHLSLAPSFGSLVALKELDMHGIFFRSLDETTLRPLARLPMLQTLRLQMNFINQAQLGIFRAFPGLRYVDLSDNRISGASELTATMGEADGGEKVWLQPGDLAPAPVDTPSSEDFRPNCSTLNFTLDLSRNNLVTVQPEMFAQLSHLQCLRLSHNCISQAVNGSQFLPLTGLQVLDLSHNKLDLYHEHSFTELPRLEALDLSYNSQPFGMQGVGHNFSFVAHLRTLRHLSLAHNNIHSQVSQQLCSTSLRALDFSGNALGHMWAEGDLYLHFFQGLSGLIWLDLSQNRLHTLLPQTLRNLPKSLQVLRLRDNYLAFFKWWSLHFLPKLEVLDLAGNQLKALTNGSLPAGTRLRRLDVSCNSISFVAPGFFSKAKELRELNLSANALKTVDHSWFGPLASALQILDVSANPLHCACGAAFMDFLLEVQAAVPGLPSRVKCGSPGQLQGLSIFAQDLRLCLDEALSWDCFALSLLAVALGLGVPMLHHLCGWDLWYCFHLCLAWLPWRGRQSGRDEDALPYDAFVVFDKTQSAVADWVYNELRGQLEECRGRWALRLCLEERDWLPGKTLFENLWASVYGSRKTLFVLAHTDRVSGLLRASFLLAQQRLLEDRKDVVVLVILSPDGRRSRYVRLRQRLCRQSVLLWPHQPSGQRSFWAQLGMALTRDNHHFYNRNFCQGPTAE
Put plainly: TLR9 inhibition reporter assay (HEK-Blue SEAP reporter). Conditions: HEK-Blue cells overexpressing human TLR9; ODN2006 5 nM; 22 hour incubation. The procedure, abridged:
as §1

For the next experiment, the target named is T3, human TLR8 (Homo sapiens, UniProt Q9NR97).
T3 construct: host or cells: HEK-Blue cells
T3 sequence (Q9NR97 27-1041): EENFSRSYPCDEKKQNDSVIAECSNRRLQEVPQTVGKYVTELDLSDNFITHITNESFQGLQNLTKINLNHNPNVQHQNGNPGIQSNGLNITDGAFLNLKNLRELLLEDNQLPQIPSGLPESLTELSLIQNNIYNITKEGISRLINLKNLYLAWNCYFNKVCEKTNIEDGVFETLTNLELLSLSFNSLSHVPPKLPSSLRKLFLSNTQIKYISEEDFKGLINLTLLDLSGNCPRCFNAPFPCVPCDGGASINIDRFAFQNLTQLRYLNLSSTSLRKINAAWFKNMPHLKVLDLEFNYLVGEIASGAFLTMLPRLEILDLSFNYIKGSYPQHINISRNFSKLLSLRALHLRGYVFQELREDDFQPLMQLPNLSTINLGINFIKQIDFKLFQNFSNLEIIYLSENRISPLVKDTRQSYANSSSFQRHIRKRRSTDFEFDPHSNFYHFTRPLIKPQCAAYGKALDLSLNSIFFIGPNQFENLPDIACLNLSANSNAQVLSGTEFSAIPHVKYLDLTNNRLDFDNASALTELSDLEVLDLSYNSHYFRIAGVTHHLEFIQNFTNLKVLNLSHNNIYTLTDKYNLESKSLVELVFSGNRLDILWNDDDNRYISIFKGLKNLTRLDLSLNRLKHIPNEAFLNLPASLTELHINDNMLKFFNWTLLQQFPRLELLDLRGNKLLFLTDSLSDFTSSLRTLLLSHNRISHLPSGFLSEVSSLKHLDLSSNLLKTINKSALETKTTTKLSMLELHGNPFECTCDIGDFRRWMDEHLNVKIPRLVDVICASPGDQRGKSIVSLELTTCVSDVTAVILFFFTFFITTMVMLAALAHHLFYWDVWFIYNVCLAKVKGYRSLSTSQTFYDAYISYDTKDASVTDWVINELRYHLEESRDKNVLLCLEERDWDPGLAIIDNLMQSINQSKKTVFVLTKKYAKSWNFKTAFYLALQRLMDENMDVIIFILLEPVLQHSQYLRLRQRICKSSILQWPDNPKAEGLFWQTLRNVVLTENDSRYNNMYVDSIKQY
Put plainly: TLR8 inhibition reporter assay (HEK-Blue SEAP reporter). Conditions: HEK-Blue cells overexpressing human TLR8; R848 15.9 μM; 22 hour incubation. The procedure, abridged:
as §1

The IC50 is the concentration that inhibits the measured activity by half.

Regarding `COc1ccc(-c2[nH]c3ccc(N4CCC(NCCCN(C)C)CC4)cc3c2C(C)C)cc1OC` [Example 76, N1-(1-(2-(3,4-dimethoxyphenyl)-3-isopropyl-H-indol-5-yl)piperidin-4-yl)-N3,N3-dimethylpropane-1,3-diamine], the values for the 50% inhibitory concentration (IC50) against human TLR7, against human TLR9 and at human TLR8 were 18 nM, 782 nM and 7.8 nM, respectively.

On to `CCc1c(-c2ccnc(OC)c2)[nH]c2ccc(N3CCN(C4CCN(CC)CC4)CC3)cc12` [Example 148, 3-ethyl-5-(4-(1-ethylpiperidin-4-yl)piperazin-1-yl)-2-(2-methoxypyridin-4-yl)-1H-indole], for which the half-inhibitory concentration (IC50) on human TLR7 is 96 nM; against human TLR9, 446 nM; against human TLR8, 32 nM.

As to `Cc1cc(-c2[nH]c3ccc(N4CCNC4=O)cc3c2C(C)C)ccn1` [Example 8, 1-(3-isopropyl-2-(2-methylpyridin-4-yl)-1H-indol-5-yl)imidazolidin-2-one], the figures for the concentration for half-maximal inhibition (IC50) on human TLR7, against human TLR9 and at human TLR8 were 92 nM, > 50000 nM and 25 nM, respectively.

Turning to `CNCCNC1CCN(c2ccc3[nH]c(-c4ccc(OC)c(OC)c4)c(C(C)C)c3c2)CC1` [Example 72, N1-(1-(2-(3,4-dimethoxyphenyl)-3-isopropyl-1H-indol-5-yl)piperidin-4-yl)-N2-methylethane-1,2-diamine], the results for the IC50 against human TLR7, at human TLR9 and against human TLR8 were 15 nM, 1390 nM and 2.8 nM, respectively.

For the molecule `Cc1c(-c2ccnc3[nH]ccc23)[nH]c2ccc(N3CCN(C4CCN(C)CC4)CC3)cc12` [Example 141, 4-(3-methyl-5-(4-(1-methylpiperidin-4-yl)piperazin-1-yl)-1H-indol-2-yl)-1H-pyrrolo[2,3-b]pyridine], the IC50 turned out to be 2170 nM against human TLR7, 124 nM at human TLR9 and 1720 nM at human TLR8.

Take `COc1ccc(-c2[nH]c3ccc(N4CCC(NC5CCN(C(C)=O)CC5)CC4)cc3c2C(C)C)cc1OC` [Example 89, 1-(4-((1-(2-(3,4-dimethoxyphenyl)-3-isopropyl-1H-indol-5-yl)piperidin-4-yl)amino)piperidin-1-yl) ethan-1-one]: the half-inhibitory concentration (IC50) against human TLR7 turned out to be 31 nM; at human TLR9, 2000 nM; at human TLR8, 5 nM.

Turning to `COc1ccc(-c2[nH]c3ccc(N4CCC(N5CCN(c6ccncc6)CC5)CC4)cc3c2C(C)C)cc1OC` [Example 94, 2-(3,4-dimethoxyphenyl)-3-isopropyl-5-(4-(4-(pyridin-4-yl)piperazin-1-yl)piperidin-1-yl)-1H-indole], the IC50 at human TLR7 was 33 nM; on human TLR9 it was 816 nM; against human TLR8, 3.5 nM.

Take `COc1ccc(-c2[nH]c3ccc(NC(=O)[C@@H]4CCCC[C@@H]4N)cc3c2C(C)C)cc1OC` [Example 21, (1R,2S)-2-amino-N-(2-(3,4-dimethoxyphenyl)-3-isopropyl-1H-indol-5-yl)cyclohexane-1-carboxamide]: the IC50 against human TLR7 turned out to be 128 nM; at human TLR9 it was 1390 nM; against human TLR8, 75 nM.

With `COc1ccc(-c2[nH]c3ccc(N4CCN(C5CC(C)(C)NC(C)(C)C5)CC4)cc3c2C)cc1OC` [Example 171, 2-(3,4-dimethoxyphenyl)-3-methyl-5-(4-(2,2,6,6-tetramethylpiperidin-4-yl)piperazin-1-yl)-1H-indole], the IC50 on human TLR7 turned out to be 8990 nM; at human TLR9 it was 379 nM; on human TLR8 it was 32200 nM.

As to `COc1ccc(-c2[nH]c3ccc(N4CCC(NC5CC(C)(C)N(C)C(C)(C)C5)CC4)cc3c2C(C)C)cc1OC` [Example 95, N-(1-(2-(3,4-dimethoxyphenyl)-3-isopropyl-1H-indol-5-yl)piperidin-4-yl)-1,2,2,6,6-pentamethylpiperidin-4-amine], the IC50 amounted to 39 nM against human TLR7, 533 nM on human TLR9 and 7.8 nM against human TLR8.

As for `COc1ccc(-c2[nH]c3ccc(NC(=O)C4CNCCO4)cc3c2C(C)C)cc1OC` (stereo not drawn) [Example 15, N-(2-(3,4-dimethoxyphenyl)-3-isopropyl-1H-indol-5-yl)morpholine-2-carboxamide], the half-maximal inhibitory concentration (IC50) against human TLR7 is 25 nM; on human TLR9, 7460 nM; on human TLR8 it was 3.4 nM.

As to `CCc1c(-c2ccc(OC)c(OC)c2)[nH]c2cc(C(C)C)c(N3CCN(C4CCN(C(C)C)CC4)CC3)cc12` [Example 69, 2-(3,4-dimethoxyphenyl)-3-ethyl-6-isopropyl-5-(4-(1-isopropylpiperidin-4-yl)piperazin-1-yl)-1H-indole], the IC50 at human TLR7 amounted to 1160 nM; against human TLR9, 2610 nM; on human TLR8 it was 14300 nM.

For the molecule `CCc1c(-c2ccc(OC)c(OC)c2)[nH]c2ccc(N3CCC(OC4CCN(C)CC4)CC3)cc12` [Example 134, 2-(3,4-dimethoxyphenyl)-3-ethyl-5-(4-((1-methylpiperidin-4-yl)oxy)piperidin-1-yl)-1H-indole], the IC50 against human TLR7 came out at 54 nM; on human TLR9, 462 nM; against human TLR8 it was 94 nM.
